Results published in patent publication US11090292B2, “Compositions and methods of use of an inappetance-controlling compound” (Aratana Therapeutics, Inc., priority 2012, dated 2021).

Columns and labels:
[1] = Example 4: clinical observations / toxicological responses; type: in vivo; details: 3 mg/kg once or twice daily, 7 days
Description: During the ten day study period, on an at least once-daily basis, each of the dogs was monitored for clinical observations, mortality, moribundity, body mass, acceptability/palatability, and food consumption. Serum samples were taken to measure capromorelin concentration, GH concentration, IGF-1 concentration, and cortisol concentration. Serum samples were taken on days 1, 2, 4, and 7 at −15 minutes (pre-dose), immediately prior to dosing (0 minutes) and 30, 45, 60, 90, 120, 240, 360, and/or 480 minutes post dosing. Additional serum samples were taken at 8 AM on Day 10 of the study to assess long-term impact of the active treatments.

[2] = Example 13: serum capromorelin and pharmacokinetics; type: in vivo, cats with compromised kidney function
Description: The following study was undertaken to assess multiple points. First, the following experiments were conducted to determine if a formulation of capromorelin, when administered either intravenously or subcutaneously, can stimulate appetite in cats with compromised kidney function. Second, the following experiments were conducted to assess the pharmacokinetic profile of capromorelin in the serum of cats with compromised kidney function. Finally, the following experiments were conducted to determine if capromorelin accumulates in the serum after 14 days of treatment that is subcutaneously administered. Sixteen cats with compromised kidney function were acclimatized for the following study. Animals assigned to Group 1 (n=6) received an intravenous administration of a capromorelin formulation (i.e., capromorelin in sterile water) at a dose of 0.75 mg/kg on Day 0 of the experiment. Animals assigned to Group 2 (n=6) received a subcutaneous administration of a capromorelin formulation (2.1% w/v capromorelin, 1% w/v benzyl alcohol, and citrate buffer) daily for 14 days at a dose of 2 mg/kg. Animals assigned to Group 3 (n=4) served as untreated controls. During the study, blood samples were taken from the Group 1 animals at time points 0 (pre-administration), 5 minutes, 10 minutes, 30 minutes, 1 h, 2 h, 4 h, 6 h, 8 h, and 12 h post administration on Day 0. Blood samples were taken from the Group 2 animals at time points 0 (pre-administration), 15 minutes, 30 minutes, 45 minutes, 1 h, 2 h, 4 h, 6 h, 8 h, and 12 h post administration on Day 0 and time points 0, 30 minutes, 1 h, 2 h, 4 h, and 8 h post administration on Day 13. In addition, body weights were collected on study days −7, −1, and 13 (for Groups 2 and 3 only). Diet consumption was also monitored on study days −7 until day 13 for the animals in Groups 2 and 3 only. Referring to FIGS. 116 and 118, the pharmacokinetics of subcutaneously administered capromorelin were also determined. […] In addition, the mean fraction of the dose absorbed was determined by dividing the mean area under the curve (AUC)/dose of the animals in Group 2, which was divided by AUC/dose of the animals in Group 1. In this case, the mean fraction of the dose (F) absorbed is 1.37.

[3] = Group 1, intravenous 0.75 mg/kg, Day 0
[4] = Group 2, subcutaneous 2 mg/kg daily, Day 13
[5] = Group 2, subcutaneous 2 mg/kg, Day 0

In the case of `CN1N=C2CCN(C(=O)[C@@H](COCc3ccccc3)NC(=O)C(C)(C)N)C[C@@]2(Cc2ccccc2)C1=O.O=C(O)C(O)C(O)C(=O)O` [capromorelin], the toxicological responses [1] is reported as “no toxicological responses were noted”, the “serum concentration of capromorelin at the spike” value (“serum concentration” below) [2, 3] is reported as “about 397 ng/mL” and the “time post-administration of initial spike of serum capromorelin” value [2, 3] is reported as “about 5 minutes”. For the same compound, the mean absorption time ([2]; Group 2, subcutaneous 2 mg/kg) was 0.4 h, the “accumulation in the serum after 14 days of treatment” value ([2]; Group 2, subcutaneous 2 mg/kg daily) was “does not accumulate” and the “serum concentration” value [2, 4] was “about 950 ng/mL”. For the same compound, the “time post administration of spike in serum capromorelin” value [2, 4] was 30 min, the “serum concentration” value [2, 5] was “about 833 ng/mL” and the “time post-administration of initial spike of serum capromorelin” value [2, 5] was “about 15 minutes”. It also gave a Cmax ([2]; cat, serum, sc, Group 2, subcutaneous 2 mg/kg, read-out: geometric Cmax) of 893 ng/mL, a clearance ([2]; cat, serum, Group 1, intravenous 0.75 mg/kg, several of the test animals) of 20 mL/min/kg and a half-life ([2]; cat, serum, Group 1, intravenous 0.75 mg/kg, read-out: terminal half-life) of 40.2 to 54 min. The “mean fraction of the dose (F) absorbed” value ([2]; subcutaneous AUC/dose (Group 2) divided by intravenous AUC/dose (Group 1)) was 1.37.
